Data: the supplement of paper PMC13380429
± gives the standard deviation of the averaged measurements.

Experiments:
[1] = system: HepG2; assay: drug sensitivity score (DSS) for viability; higher = more toxic; extreme values may be limits of the assay; settings: 72 h
[2] = system: Caco-2; assay: as above; settings: 72 h
[3] = system: Calu-3; assay: as above; settings: 72 h
[4] = system: Vero E6; assay: as above; settings: 72 h
[5] = system: U2OS; assay: as above; settings: 72 h
[6] = system: A549-ACE2 infected with SARS-CoV-2; assay: morphology score (similarity to uninfected cells); higher = more like uninfected cells; settings: 24 h
[7] = system: A549-ACE2; assay: drug-induced phospholipidosis relative to tamoxifen; higher = more phospholipidosis
[8] = system: A549-ACE2 infected with SARS-CoV-2; assay: SARS-CoV-2 infection rate relative to DMSO; higher = more infection; settings: 24 h
[9] = system: HepG2; assay: relative viability EC50 (midpoint between 100% and the lowest measured viability); higher = less toxic; settings: 72 h
[10] = system: Caco-2; assay: as above; settings: 72 h
[11] = system: Calu-3; assay: as above; settings: 72 h
[12] = system: Vero E6; assay: as above; settings: 72 h
[13] = system: U2OS; assay: as above; settings: 72 h
[14] = system: A549-ACE2 infected with SARS-CoV-2; assay: cell count relative to DMSO; higher = less toxic; settings: 24 h
[15] = system: HepG2; assay: cell viability relative to DMSO; higher = less toxic; settings: 72 h
[16] = system: Caco-2; assay: as above; settings: 72 h
[17] = system: Calu-3; assay: as above; settings: 72 h
[18] = system: Vero E6; assay: as above; settings: 72 h
[19] = system: U2OS; assay: as above; settings: 72 h
[20] = system: A549-ACE2; assay: phospholipidosis EC50; higher = less potent phospholipidosis inducer

FC(F)(F)c1ccc(CNc2ccc(Cc3c[nH]c4ncc(Cl)cc34)cn2)cn1 [pexidartinib]
Settings	drug sensitivity score	relative viability EC50 [µM]
[1]	1.2	–
[2]	0	–
[3]	0	–
[4]	0	–
[5]	0	–
[9]	–	> 10
[10]	–	> 10
[11]	–	> 10
[12]	–	> 10
[13]	–	> 10

Settings	SARS-CoV-2 infection rate, [8] [%]	cell count, [14] [%]	cell viability, [15] [%]	cell viability, [16] [%]	cell viability, [17] [%]	cell viability, [18] [%]	cell viability, [19] [%]	morphology score, [6]
1 nM	–	–	107	81.7	108	99.7	94.2	–
10 nM	–	–	92.2	95.7	108	96.4	100	–
100 nM	–	–	105	98.2	97.6	103	97.9	–
0.3 µM	104	95	–	–	–	–	–	-0.17
1000 nM	–	–	94.5	94.6	102	95.3	102	–
3 µM	102	101	–	–	–	–	–	0.07
10 µM	103	101	–	–	–	–	–	0.25
10000 nM	–	–	80.7	94.5	90	113	96.8	–
30 µM	67	92	–	–	–	–	–	0.46

drug-induced phospholipidosis [%], [7]
Settings	0.3 µM	0.833333 µM	3.33333 µM	6.66667 µM	10 µM	30 µM
24 h	1.33	-1.52	1.3	5.68	7.59	11.6
48 h	2.9	-0.74	2.56	7.51	9.31	14.4
72 h	4.54	-1.68	3.26	9.4	15.6	20.7

CC(C)(C)Cn1c(N)nc2ccc(-c3[nH]c(C(C)(C)C)nc3-c3ccc(F)cc3)nc21
Settings	drug sensitivity score	relative viability EC50 [µM]
[1]	0.6	–
[2]	2.9	–
[3]	6.1	–
[4]	6.7	–
[5]	1.2	–
[9]	–	> 10
[13]	–	> 10

Settings	SARS-CoV-2 infection rate, [8] [%]	cell count, [14] [%]	cell viability, [15] [%]	cell viability, [16] [%]	cell viability, [17] [%]	cell viability, [18] [%]	cell viability, [19] [%]	morphology score, [6]
1 nM	–	–	97	102	107	93.2	99	–
10 nM	–	–	92.8	98.1	94.6	94.5	98.4	–
100 nM	–	–	100	89.6	85.5	83.6	95.2	–
0.3 µM	118	87	–	–	–	–	–	-0.39
1000 nM	–	–	94.9	86.6	75.3	72.4	91.7	–
3 µM	8	129	–	–	–	–	–	0.95
10 µM	4	124	–	–	–	–	–	0.96
10000 nM	–	–	85.3	68	54.1	58.7	77.4	–
30 µM	8	100	–	–	–	–	–	0.66

drug-induced phospholipidosis [%], [7]
Settings	0.3 µM	0.833333 µM	3.33333 µM	6.66667 µM	10 µM	30 µM
24 h	-0.05	-0.99	3.52	13.5	24.9	60.6
48 h	1.57	1.82	5.06	15.9	25.2	57.1
72 h	2.63	3.92	4.98	13.2	27	–

CCN(CC)CCNC(=O)c1c(C)[nH]c(/C=C2\C(=O)Nc3ccc(F)cc32)c1C [sunitinib]
Settings	drug sensitivity score
[1]	9
[2]	5.7
[3]	0.1
[4]	4.1
[5]	4

Settings	morphology score, 0.1 µM	morphology score, 0.3 µM	morphology score, 1 µM	morphology score, 3 µM	phospholipidosis EC50, 24 h [µM]	phospholipidosis EC50, 48 h [µM]	phospholipidosis EC50, 72 h [µM]
[6]	0.28	0.35	0.53	0.51	–	–	–
[20]	–	–	–	–	4.75	4.77	3.32

CC(C)[C@@]1(NC(=O)[C@@H]2C[C@@H]3c4cccc5[nH]cc(c45)C[C@H]3N(C)C2)O[C@@]2(O)[C@@H]3CCCN3C(=O)[C@H](Cc3ccccc3)N2C1=O [dihydroergocristine]
Settings	drug sensitivity score	relative viability EC50 [µM]
[1]	0.1	–
[2]	0	–
[3]	0	–
[4]	0	–
[5]	0	–
[9]	–	> 10
[10]	–	> 10
[11]	–	> 10
[12]	–	> 10
[13]	–	> 10

cell viability [%]
Settings	[15]	[16]	[17]	[18]	[19]
1 nM	103	105	92.6	102	96.3
10 nM	95.1	100	97.5	100	100
100 nM	95.8	89.3	99	102	99.2
1000 nM	100	102	93.3	99	98.2
10000 nM	86.4	91.7	94.9	99.5	96.4

C=C1C(=O)O[C@@H]2[C@H]3O[C@]3(C)CC/C=C(\C)CC[C@@H]12 [parthenolide-(alternate-stereo)]
Settings	drug sensitivity score	relative viability EC50 [µM]
[1]	5.27 ± 0.4	–
[2]	3.07 ± 0.23	–
[3]	0.733 ± 0.87	–
[4]	2.37 ± 0.75	–
[5]	5.23 ± 0.75	–
[9]	–	2.48
[10]	–	2.99
[13]	–	2.94

Settings	SARS-CoV-2 infection rate, [8] [%]	cell count, [14] [%]	cell viability, [15] [%]	cell viability, [16] [%]	cell viability, [17] [%]	cell viability, [18] [%]	cell viability, [19] [%]	morphology score, [6]
1 nM	–	–	102 ± 8.2	98.5 ± 0.36	102 ± 6.4	102 ± 2.7	100 ± 5.1	–
10 nM	–	–	95.7 ± 4	95.8 ± 7.6	108 ± 3.5	99.7 ± 3	101 ± 4.8	–
0.1 µM	101 ± 1.5	101 ± 1.5	–	–	–	–	–	0.0167 ± 0.068
100 nM	–	–	103 ± 8	96.8 ± 6.6	97.3 ± 7.1	102 ± 3.6	99.4 ± 2.5	–
0.3 µM	99.3 ± 4	102 ± 1.7	–	–	–	–	–	0.157 ± 0.042
1 µM	104 ± 1.7	100 ± 1.7	–	–	–	–	–	-0.0567 ± 0.13
1000 nM	–	–	94.2 ± 5.1	98.67 ± 0.8	109 ± 2.6	102 ± 2.7	97.7 ± 3.5	–
3 µM	105 ± 4.7	97.7 ± 3.1	–	–	–	–	–	-0.3 ± 0.036
10000 nM	–	–	22.5 ± 7.9	45.4 ± 2.4	128 ± 100	52.3 ± 13	12.2 ± 8.8	–

drug-induced phospholipidosis [%], [7]
Settings	0.3 µM	0.833333 µM	3.33333 µM	6.66667 µM	10 µM
24 h	1.51 ± 1.3	0.313 ± 1.5	6.15 ± 4	18.1 ± 6.9	24 ± 3.2
48 h	1.04 ± 1.1	-0.06 ± 1.2	2.1 ± 0.24	11.9 ± 4.7	16.9 ± 1.4
72 h	3.01 ± 2.9	-1.59 ± 0.86	-0.616 ± 0.39	4.96 ± 1.7	9.42 ± 0.58
